For orientation: melting point means the temperature of the solid-liquid transition. `Clc1ccc2c(-c3cncn3CCc3ccccc3)c[nH]c2c1` [Compound 20, 6-Chloro-3-(1-phenethyl-1H-imidazol-5-yl)-1H-indole] had a melting point of 91 to 92 °C.

Compound `COc1ccc2c(-c3cncn3Cc3ccccc3)c[nH]c2c1` [Compound 50, 3-(1-Benzyl-1H-imidazol-5-yl)-6-methoxy-1H-indole] registered a melting point of 66 to 67 °C. With `COc1ccc(-c2cncn2Cc2ccccc2)cc1` [Compound 104, 1-Benzyl-5-(4-methoxyphenyl)-1H-imidazole] the figure was 83 to 84 °C; with `Fc1cccc2c(-c3cncn3Cc3ccccc3)c[nH]c12` [Compound 44, 3-(1-Benzyl-1H-imidazol-5-yl)-7-fluoro-1H-indole], 179 to 180 °C.

In turn, `COc1ccc2[nH]cc(-c3cncn3CCc3c[nH]c4ccccc34)c2c1` [Compound 87, 3-(1-(2-(1H-Indol-3-yl)ethyl)-1H-imidazol-5-yl)-5-methoxy-1H-indole] gave a melting point of 152 to 153 °C. With `COc1ccc(-c2cncn2Cc2c[nH]c3ccccc23)cc1` [Compound 112, 3-((5-(4-Methoxyphenyl)-1H-imidazol-1-yl)methyl)-1H-indole] the figure was 152 to 153 °C; with `Fc1ccc2[nH]cc(-c3cncn3CCc3ccc4c(c3)OCO4)c2c1` [Compound 37, 3-(1-(2-(Benzo[d][1,3]dioxol-5-yl)ethyl)-1H-imidazol-5-yl)-5-fluoro-1H-indole], more than 200 °C. With `CCCCCn1cncc1-c1c[nH]c2cccc(Br)c12` [Compound 94, 4-Bromo-3-(1-pentyl-1H-imidazol-5-yl)-1H-indole] the figure was 207 to 208 °C; with `COc1ccc(OC)c(CCn2cncc2-c2c[nH]c3ccc(F)cc23)c1` [Compound 30, 3-(1-(2,5-Dimethoxyphenethyl)-1H-imidazol-5-yl)-5-fluoro-1H-indole], 150 to 151 °C.

For the compound `Brc1cccc2[nH]cc(-c3cncn3Cc3c[nH]c4ccccc34)c12` [Compound 78, 3-(1-((1H-Indol-3-yl)methyl)-1H-imidazol-5-yl)-4-bromo-1H-indole], the melting point lay within 201 to 202 °C.

As for `COc1ccc(Cn2cncc2-c2c[nH]c3cc(OC)ccc23)cc1` [Compound 65, 6-Methoxy-3-(1-(4-methoxybenzyl)-1H-imidazol-5-yl)-1H-indole], the melting point lay within 65 to 66 °C. In the case of `CCCCCn1cncc1-c1c[nH]c2c(F)cccc12` it was 164 to 165 °C; in that of `COc1ccc(Cn2cncc2-c2c[nH]c3cccc(Cl)c23)cc1` [Compound 61, 4-Chloro-3-(1-(4-methoxybenzyl)-1H-imidazol-5-yl)-1H-indole], 74 to 75 °C; in that of `COc1ccc(Cn2cncc2-c2c[nH]c3ccc(Br)cc23)cc1` [Compound 16, 5-Bromo-3-(1-(4-methoxybenzyl)-1H-imidazol-5-yl)-1H-indole], 197 to 198 °C.

The compound `COc1ccc(Cn2cncc2-c2c[nH]c3c(F)cccc23)cc1` [Compound 60, 7-Fluoro-3-(1-(4-methoxybenzyl)-1H-imidazol-5-yl)-1H-indole] displayed a melting point of 179 to 180 °C. In the case of `COc1ccc2[nH]cc(-c3cncn3CCc3ccccc3)c2c1` [Compound 56, 5-Methoxy-3-(1-phenethyl-1H-imidazol-5-yl)-1H-indole] it was 51 to 52 °C; in that of `CCCCCn1cncc1-c1c[nH]c2c(Cl)cccc12` [Compound 93, 7-Chloro-3-(1-pentyl-1H-imidazol-5-yl)-1H-indole], 122 to 123 °C. In the case of `Clc1ccc2[nH]cc(-c3cncn3Cc3c[nH]c4ccccc34)c2c1` [Compound 76, 3-(1-((1H-Indol-3-yl)methyl)-1H-imidazol-5-yl)-5-chloro-1H-indole] it was 107 to 108 °C. In the case of `COc1ccc(CCn2cncc2-c2c[nH]c3cccc(F)c23)cc1` [Compound 66, 4-Fluoro-3-(1-(4-methoxyphenethyl)-1H-imidazol-5-yl)-1H-indole] it was 56 to 57 °C; in that of `Clc1cccc2[nH]cc(-c3cncn3CCc3ccccc3)c12` [Compound 53, 4-Chloro-3-(1-phenethyl-1H-imidazol-5-yl)-1H-indole], 73 to 74 °C; in that of `COc1ccc(OC)c(CCn2cncc2-c2c[nH]c3cc(F)ccc23)c1` [Compound 31, 3-(1-(2,5-Dimethoxyphenethyl)-1H-imidazol-5-yl)-6-fluoro-1H-indole], 130 to 131 °C.

For the compound `COc1ccc(OC)c(CCn2cncc2-c2c[nH]c3cc(Br)ccc23)c1` [Compound 35, 6-Bromo-3-(1-(2,5-dimethoxyphenethyl)-1H-imidazol-5-yl)-1H-indole], the melting point lay in the range of 133 to 134 °C. In the case of `COc1ccc(Cn2cncc2-c2c[nH]c3cccc(F)c23)cc1` [Compound 59, 4-Fluoro-3-(1-(4-methoxybenzyl)-1H-imidazol-5-yl)-1H-indole] it was 66 to 67 °C; in that of `COc1ccc(CCn2cncc2-c2c[nH]c3c(Cl)cccc23)cc1` [Compound 69, 7-Chloro-3-(1-(4-methoxyphenethyl)-1H-imidazol-5-yl)-1H-indole], 59 to 60 °C.

On to `Fc1cccc2[nH]cc(-c3cncn3Cc3c[nH]c4ccccc34)c12` [Compound 73, 3-(1-((1H-Indol-3-yl)methyl)-1H-imidazol-5-yl)-4-fluoro-1H-indole], for which the melting point is 164 to 165 °C.

Turning to `c1ccc(Cn2cncc2-c2ccccc2)cc1` [Compound 103, 1-Benzyl-5-phenyl-1H-imidazole], the melting point is 99 to 100 °C. With `COc1ccc(-c2cncn2CCc2c[nH]c3ccccc23)cc1` [Compound 114, 3-(2-(5-(4-Methoxyphenyl)-1H-imidazol-1-yl)ethyl)-1H-indole] the figure was 169 to 170 °C. Regarding `Brc1cccc2[nH]cc(-c3cncn3Cc3ccccc3)c12` [Compound 48, 3-(1-Benzyl-1H-imidazol-5-yl)-4-bromo-1H-indole], the melting point lay in the range of 201 to 202 °C. With `Clc1ccc2[nH]cc(-c3cncn3CCc3c[nH]c4ccccc34)c2c1` [Compound 84, 3-(1-(2-(1H-Indol-3-yl)ethyl)-1H-imidazol-5-yl)-5-chloro-1H-indole] the figure was 70 to 71 °C. In the case of `Clc1ccc2c(-c3cncn3CCc3ccc4c(c3)OCO4)c[nH]c2c1` [Compound 40, 3-(1-(2-(Benzo[d][1,3]dioxol-5-yl)ethyl)-1H-imidazol-5-yl)-6-chloro-1H-indole] it was 180 to 181 °C; in that of `Clc1ccc2[nH]cc(-c3cncn3CCc3ccc4c(c3)OCO4)c2c1` [Compound 39, 3-(1-(2-(Benzo[d][1,3]dioxol-5-yl)ethyl)-1H-imidazol-5-yl)-5-chloro-1H-indole], more than 200 °C; in that of `c1ccc2c(-c3cncn3CCc3ccc4c(c3)OCO4)c[nH]c2c1` [Compound 36, 3-(1-(2-(Benzo[d][1,3]dioxol-5-yl)ethyl)-1H-imidazol-5-yl)-1H-indole], 195 to 196 °C. In the case of `COc1ccc(Cn2cncc2-c2c[nH]c3ccc(Cl)cc23)cc1` [Compound 14, 5-Chloro-3-(1-(4-methoxybenzyl)-1H-imidazol-5-yl)-1H-indole] it was 193 to 194 °C; in that of `Clc1ccc2[nH]cc(-c3cncn3Cc3ccccc3)c2c1` [Compound 46, 3-(1-Benzyl-1H-imidazol-5-yl)-5-chloro-1H-indole], 78 to 79 °C. Turning to `COc1ccc(CCn2cncc2-c2c[nH]c3ccc(OC)cc23)cc1` [Compound 71, 5-Methoxy-3-(1-(4-methoxyphenethyl)-1H-imidazol-5-yl)-1H-indole], the melting point lay within 48 to 49 °C. On to `COc1ccc(Cn2cncc2-c2c[nH]c3c(Cl)cccc23)cc1` [Compound 62, 7-Chloro-3-(1-(4-methoxybenzyl)-1H-imidazol-5-yl)-1H-indole], for which the melting point was 220 to 221 °C. With `Fc1cccc2c(-c3cncn3Cc3c[nH]c4ccccc34)c[nH]c12` [Compound 74, 3-(1-((1H-Indol-3-yl)methyl)-1H-imidazol-5-yl)-7-fluoro-1H-indole] the figure was 186 to 187 °C; with `Brc1ccc2c(-c3cncn3Cc3ccc(I)cc3)c[nH]c2c1` [Compound 10, 6-Bromo-3-(1-(4-iodobenzyl)-1H-imidazol-5-yl)-1H-indole], more than 200 °C. In turn, `Fc1cccc2[nH]cc(-c3cncn3CCc3ccccc3)c12` [Compound 51, 4-Fluoro-3-(1-phenethyl-1H-imidazol-5-yl)-1H-indole] showed a melting point of 181 to 182 °C. `COc1ccc2c(-c3cncn3Cc3c[nH]c4ccccc34)c[nH]c2c1` [Compound 80, 3-(1-((1H-Indol-3-yl)methyl)-1H-imidazol-5-yl)-6-methoxy-1H-indole] had a melting point of 95 to 96 °C. With `COc1ccc2[nH]cc(-c3cncn3Cc3c[nH]c4ccccc34)c2c1` [Compound 79, 3-(1-((1H-Indol-3-yl)methyl)-1H-imidazol-5-yl)-5-methoxy-1H-indole] the figure was 97 to 98 °C; with `COc1ccc(CCn2cncc2-c2c[nH]c3ccc(F)cc23)cc1` [Compound 24, 5-Fluoro-3-(1-(4-methoxyphenethyl)-1H-imidazol-5-yl)-1H-indole], 152 to 153 °C. With `COc1ccc(Cn2cncc2-c2c[nH]c3ccc(F)cc23)cc1` [Compound 12, 5-Fluoro-3-(1-(4-methoxybenzyl)-1H-imidazol-5-yl)-1H-indole] the figure was 181 to 182 °C; with `Clc1cccc2c(-c3cncn3CCc3ccccc3)c[nH]c12` [Compound 54, 7-Chloro-3-(1-phenethyl-1H-imidazol-5-yl)-1H-indole], 47 to 48 °C; with `Clc1cccc2[nH]cc(-c3cncn3Cc3ccccc3)c12` [Compound 45, 3-(1-Benzyl-1H-imidazol-5-yl)-4-chloro-1H-indole], 198 to 199 °C. In the case of `COc1ccc(CCn2cncc2-c2c[nH]c3cc(OC)ccc23)cc1` [Compound 72, 6-Methoxy-3-(1-(4-methoxyphenethyl)-1H-imidazol-5-yl)-1H-indole] it was 45 to 46 °C.
